Assay results taken from PMC9365377 (Clinical Cancer Research, 2022).
Entries after “also recorded” stand apart in the source; their conditions may differ. Like-named read-outs stand apart in the source and are kept apart here.

Experiments:
[1] = test system: patients with NRAS-mutant melanoma; assay: Phase Ib dose escalation: DLTs in cycle 1, MTD/RP2D determination; type: in vivo, human; details: 28-day schedule
[2] = phase I study, 3 weeks on/1 week off; cited from earlier work
[3] = Plasma pharmacokinetics; type: in vivo, human; details: for Tmax: steady state; for Cmax: human, Cmax at steady state, geometric mean (geometric %CV)
[4] = test system: advanced, previously untreated, unresectable, stage IIIC or IV NRAS-mutant melanoma; details: cited from earlier work
[5] = phase I study; cited from earlier work
[6] = binimetinib 45 mg twice daily + ribociclib 200 mg once daily, 28-day schedule, 11 subjects
[7] = binimetinib 45 mg orally twice daily or dacarbazine 1,000 mg/m^2 intravenously every 3 weeks, 402 patients
[8] = patients who received prior immunotherapy

Row | SMILES | RP2D (in the combination) ([1]; 21 days on/7 days off) [mg once daily] | recommended dose for expansion, single agent [2] [mg/day] | Tmax [3, 6] | Dose proportionality of steady-state exposures ([3]; dose-escalation range of 200 to 600 mg once daily) | Cmax ([3]; plasma, 600 mg ribociclib coadministered with binimetinib, 21-day cycle) [ng/mL] | Cmax ([3]; plasma, binimetinib 45 mg twice daily + ribociclib 200 mg once daily, 28-day schedule, 11 subjects, plasma) [ng/mL] | RP2D (in the combination) ([1]; continuous dosing) [mg twice daily] | PFS HR, binimetinib vs dacarbazine ([4]; 95% CI, 0.47–0.80, one-sided P < 0.001) | OS HR, binimetinib vs dacarbazine ([4]; 95% CI, 0.75–1.33, one-sided P = 0.50) | median PFS [4, 7] [months] | median PFS [4, 8] [months] | recommended phase II dose (RP2D), single agent [5] [mg twice daily] | AUCtau at steady state, geometric mean (geometric %CV) ([3]; binimetinib 45 mg twice daily + ribociclib 200 mg once daily, 28-day schedule, 11 subjects, plasma)
1 | CN(C)C(=O)c1cc2cnc(Nc3ccc(N4CCNCC4)cn3)nc2n1C1CCCC1 [ribociclib] | 200 | 600 | about 2.25 hour postdose | increased greater than dose proportionally; also recorded: greater than dose proportional | 1910 | 220 | – | – | – | – | – | – | –
2 | Cn1cnc2c(F)c(Nc3ccc(Br)cc3F)c(C(=O)NOCCO)cc21 [binimetinib] | – | – | about 1.00 hour postdose | – | – | – | 45 | 0.62 | 1.00 | 2.8 | 5.5 | 45 | 2,250 (37.7%) hour*ng/mL
3 | CN(C)/N=N/c1[nH]cnc1C(N)=O [dacarbazine] | – | – | – | – | – | – | – | – | – | 1.5 | 1.6 | – | –
